From US10772836B2, “Method for producing particles” (RICOH COMPANY, LTD., priority 2016, dated 2020)

Key:
[1] = Oral absorbability of […], blood drug concentration after oral administration (Test Example 6); assay type: in vivo; details: rat, plasma, male SD rats, single oral dose 10 mg/kg in terms of […]
Method: In order to evaluate an oral absorbability of the pharmaceutical particles produced in Example 2, the pharmaceutical particles of Example 2 and […] bulk powder were orally administrated to male SD rats (from 6 to 8 week-old, available from Japan SLC, Inc.) and then blood drug concentrations were measured over time. Each powder was suspended in water and administrated through a single-dose forced oral administration to the male SD rats at 10 mg/kg in terms of […]. After the oral administration, blood was collected from tail veins over time, transferred to heparinized micro test tubes, and cooled with ice immediately. After the cooling, the blood was rapidly centrifuged to obtain blood plasma. The resultant blood plasma was quantified by an ultra-high performance liquid chromatography (available from Waters) equipped with, as a detector, a single quadrupole mass spectrometer (ACQUITY SQD, available from Waters).

[2] = system: blood calcium concentration; assay: Drug efficacy after transpulmonary administration, blood calcium concentration (Test Example 9); assay type: in vivo; details: male SD rats, transpulmonary 40 micrograms/animal in terms of CALCITONIN, time zero = 100%
Method: A powder preparation prepared using the pharmaceutical particles of Example 3 was evaluated for a drug efficacy after transpulmonary administration. The powder preparation was prepared by mixing the pharmaceutical particles of Example 3 with lactose (average particle diameter: 50 micrometers, RESPITOSE, available from DMV Japan) in an amount of 5 times as much as the amount of the pharmaceutical particles. The powder preparation was transpulmonary administrated (40 micrograms/animal in terms of CALCITONIN) to male SD rats (from 6 to 8 week-old, available from Japan SLC, Inc.) and then a blood calcium concentration after the administration was measured over time. As a control group, a simply mixed powder was prepared by molding a mixture of CALCITONIN bulk powder and lactose. The CALCITONIN has a pharmacological action of decreasing the blood calcium concentration. Therefore, the blood calcium concentration was selected as an indicator for evaluating the drug efficacy of the pharmaceutical particles of Example 3. The pharmaceutical particles were transpulmonary administrated by inserting an inhaler (DP-4, available from Ina Research Inc.) into the airway under inhalation anesthesia with isoflurane and feeding compressed air. A time point immediately before the transpulmonary administration was defined as time zero. Change in blood calcium concentration over time was evaluated assuming that a blood calcium concentration at the time zero was 100%. The blood calcium concentration was measured using a METALLOASSAY calcium (Ca) measurement LS kit CPZIII (available from Metallogenics Co., Ltd.).

[3] = Evaluation test for dissolution property in intrapulmonary-environment imitating liquid (Test Example 7); assay type: physicochemical; details: 37 degrees Celsius, 30 spm
Method: Ten milligrams of the pharmaceutical particles were added to 100 mL of an intrapulmonary-environment imitating liquid (0.169 g of magnesium chloride, 5.016 g of sodium chloride, 0.249 g of potassium chloride, 0.059 g of anhydrous sodium sulfate, 0.306 g of calcium chloride dehydrate, 0.794 g of sodium acetate trihydrate, 2.170 g of sodium hydrogen carbonate, 0.080 g of sodium citrate dehydrate, 0.118 g of disodium hydrogen-phosphate, and 0.167 g of dipalmitoylphosphatidylcholine in 1 L of water). […] Thus, the “dissolution property” was evaluated.

For `COc1ccc(/C=C/C(=O)Nc2ccccc2C(=O)O)cc1OC` [Tranilast], the bioavailability [1] was 1.2%, the AUC(0-inf) [1] was 800 ± 400 ng·h/mL and the Cmax [1] was 100 ng/mL. The Tmax [1] was 1.8 ± 0.7 h and the half-life [1] was 2.9 ± 0.7 h.
Calcitonin [Calcitonin bulk powder] showed a Blood calcium concentration ([2]; time 0 h) of 100%, a Blood calcium concentration ([2]; time 0.25 h) of 81.7 ± 11.6% and a Blood calcium concentration ([2]; time 0.5 h) of 74.6 ± 0.9%. It also gave a Blood calcium concentration ([2]; time 1 h) of 81.1 ± 10.1%, a Blood calcium concentration ([2]; time 2 h) of 79.5 ± 7.1% and a Blood calcium concentration ([2]; time 4 h) of 96.7 ± 5.1%. The Blood calcium concentration ([2]; time 6 h) was 99.1 ± 12.6%, the Blood calcium concentration ([2]; time 8 h) was 102.1 ± 15.9% and the Blood calcium concentration ([2]; time 12 h) was 104.3 ± 13.8%. The Blood calcium concentration ([2]; time 24 h) was 110.9 ± 5.5%, the Dissolution amount ([3]; time 0 hour) was 0 µg/mL and the Dissolution amount ([3]; time 0.25 hour) was 9.56 ± 0.03 µg/mL. For the same compound, the Dissolution amount ([3]; time 0.5 hour) was 9.88 ± 0.13 µg/mL, the Dissolution amount ([3]; time 1 hour) was 9.68 ± 0.20 µg/mL and the Dissolution amount ([3]; time 2 hour) was 9.09 ± 0.04 µg/mL. It also gave a Dissolution amount ([3]; time 4 hour) of 9.01 ± 0.44 µg/mL, a Dissolution amount ([3]; time 6 hour) of 9.39 ± 0.14 µg/mL and a Dissolution amount ([3]; time 12 hour) of 8.59 ± 0.15 µg/mL. It also gave a Dissolution amount ([3]; time 60 hour) of 8.63 ± 0.02 µg/mL.
